Columns and labels:
[1] = dog, in vivo
Protocol: Four male beagle dogs weighing 9.5-11 kg are used and are fasted for two days prior to experimentation. Witepsol H-15 is used as an excipient to prepare the suppository formulation of cefmetazole. Microenema formulations are prepared with aqueous 0.02M phosphate buffer with a final pH of 7.4. Either a 1 g suppository or a 1 ml microenema is given to each dog. The formulations may contain varying amounts of adjuvant. Blood samples are taken from the foreleg vein at predetermined sampling times after dosing. Blood samples are heparinized and centrifuged at 3,000 rpm for 10 minutes. The concentration of cefmetazole in the plasma of the dogs is analyzed as a function of time using plasma aliquots for the assay of cefmetazole.

[2] = in situ perfusion method of the rectum (perfusate recirculated through the rat rectum; drug remaining in the perfusate)
Protocol: In this experiment, the amount of remaining theophylline, originally at a concentration of about 200 mg/ml, in aqueous solution and continually recirculated or perfused to the rectal compartment of the rat, at the end of one hour, is shown as the lower plot for studies carried out in the presence of 0.2% sodium salicylate, is shown as the upper plot.
A second cannula is inserted through the anus 1 cm inside the rectum and secured by ligation. Thus, about 2 cm of the rectum is exposed to the perfusate. The perfustate (6 ml) is circulated at a rate of 2 ml/min at 38°C. As perfustate, 1/15 M-phosphate buffer solutions are used and the ionic strength of the perfusate is adjusted to 0.75 with sodiumchloride as necessary. […] The amount of drug remaining in the perfusate is analyzed as a function of time by appropriate methods, e.g., by high-pressure liquid chromatography.
A second cannula is inserted through the anus 1 cm. inside the rectum and secured by ligation. Thus, about 2 cm of the rectum is exposed to the perfusate. The perfusate (6 ml) is circulated at a rate of 2 ml/min at 38°C. As perfusate, 1/15 M-phosphate buffer solutions are used and the ionic strength of the perfusate is adjusted to 0.75 with sodium chloride as necessary. […] The amount of drug remaining in the perfusate is analyzed as a function of time by appropriate methods, e.g. by high-pressure liquid chromatography.

SMILES: CO[C@@]1(NC(=O)CSCC#N)C(=O)N2C(C(=O)O)=C(CSc3nnnn3C)CS[C@@H]21 [cefmetazole, Cefmetazole]
- bioavailability, suppository formulations versus microenema formulations [1]: greater bioavailability
- rectal absorption of cefmetazole [1]: significantly enhanced

SMILES: O=C(O)c1cc(O)ccc1O [gentisic acid]
- adjuvant effect on the rectal absorption ([2]; Figure 4 (theophylline)): evident

SMILES: Cn1c(=O)c2[nH]cnc2n(C)c1=O [theophylline, 3,7-Dihydro-1,3-dimethyl-1H-purine-2,6-dione]
- effect of the salicylate on the rate of absorption of theophylline from the rectal compartment ([2]; Figure 1, theophylline about 200 mg/ml aqueous solution, amount remaining at end of one hour, 0.2% sodium salicylate, effect greatest below pH 5.5 and above pH 7.5): marked effect

Reference: patent publication EP0031561B1, “A rectally administered suppository comprising a drug and an adjuvant” (Merck & Co., Inc., priority 1979, dated 1981)
